Assay results as given in paper PMC10836395, “Investigation of how gate residues in the main channel affect the catalytic activity of Scytalidium thermophilum catalase” (Acta Crystallographica. Section D, Structural Biology, 2024).
Where a chain is given by its changes, count along the chain named. Marks after values point to notes of the source that are not given here.

Assays:
CATPO [1] = target: T1, CATPO (Scytalidium thermophilum (Humicola insolens), UniProt M4GGR5); assay: Substrate-specificity analysis of the phenol oxidase activity; type: biochemical
CATPO E484A variant [2] = target: T2, CATPO E484A variant (Scytalidium thermophilum (Humicola insolens), UniProt M4GGR5, E503A); assay: as above; type: biochemical
CATPO E484D variant [3] = target: T3, CATPO E484D variant (Scytalidium thermophilum (Humicola insolens), UniProt M4GGR5, E503D); type: biochemical
CATPO E484I variant = CATPO E484I variant (Scytalidium thermophilum (Humicola insolens), UniProt M4GGR5, E503I); type: biochemical
CATPO T188A variant [4] = target: T4, CATPO T188A variant (Scytalidium thermophilum (Humicola insolens), UniProt M4GGR5, T207A); type: biochemical
CATPO T188D variant = CATPO T188D variant (Scytalidium thermophilum (Humicola insolens), UniProt M4GGR5, T207D); type: biochemical
CATPO T188F variant [5] = target: T5, CATPO T188F variant (Scytalidium thermophilum (Humicola insolens), UniProt M4GGR5, T207F); type: biochemical
CATPO T188I variant [6] = target: T6, CATPO T188I variant (Scytalidium thermophilum (Humicola insolens), UniProt M4GGR5, T207I); type: biochemical
CATPO [7] = target: T1, CATPO; assay: Inhibition of catechol oxidation; type: biochemical; conditions: catechol oxidation by CATPO; catechol 1 to 100 mM; read-out: K i
CATPO E484A variant [8] = target: T2, CATPO E484A variant; assay: biochemical
CATPO E484D variant [9] = target: T3, CATPO E484D variant; assay: biochemical
CATPO T188A variant [10] = target: T4, CATPO T188A variant; assay: biochemical
CATPO T188F variant [11] = target: T5, CATPO T188F variant; assay: biochemical
CATPO T188I variant [12] = target: T6, CATPO T188I variant; assay: biochemical
CATPO [13] = target: T7, CATPO (Mycothermus thermophilus, UniProt M4GGR5); assay: Spectrophotometric phenol oxidase assay without H2O2 at pH 7.0 and 60 °C, initial rates fitted to the Michaelis-Menten equation.; type: biochemical; conditions: n = 3
T7 construct: recombinant, pET-28-TEV-CATPO; contains heme d; Rz 0.8
T7 sequence (M4GGR5 20-717): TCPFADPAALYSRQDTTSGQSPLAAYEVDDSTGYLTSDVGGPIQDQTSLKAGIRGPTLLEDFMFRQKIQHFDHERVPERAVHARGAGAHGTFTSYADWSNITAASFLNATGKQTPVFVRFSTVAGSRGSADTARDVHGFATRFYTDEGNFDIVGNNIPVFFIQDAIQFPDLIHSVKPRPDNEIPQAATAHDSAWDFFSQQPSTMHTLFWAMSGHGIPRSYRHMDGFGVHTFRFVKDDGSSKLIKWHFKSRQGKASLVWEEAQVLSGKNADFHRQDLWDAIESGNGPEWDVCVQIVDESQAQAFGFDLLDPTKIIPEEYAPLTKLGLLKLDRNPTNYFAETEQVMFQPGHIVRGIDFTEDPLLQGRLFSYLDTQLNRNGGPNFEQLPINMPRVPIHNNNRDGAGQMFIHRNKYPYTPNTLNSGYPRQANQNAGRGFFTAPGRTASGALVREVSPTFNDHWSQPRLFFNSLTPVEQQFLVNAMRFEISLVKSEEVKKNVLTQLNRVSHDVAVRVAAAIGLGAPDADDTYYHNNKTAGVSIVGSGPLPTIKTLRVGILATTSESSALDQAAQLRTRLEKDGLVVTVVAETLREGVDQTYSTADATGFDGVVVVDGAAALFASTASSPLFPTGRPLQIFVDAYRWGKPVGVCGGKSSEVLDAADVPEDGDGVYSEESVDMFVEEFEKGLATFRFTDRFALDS
Experimental: (§1) All inhibition assays were performed in triplicate.

T188I = target: T8, T188I (Mycothermus thermophilus, UniProt M4GGR5, T207I); assay: as above; type: biochemical; conditions: read-out: Phenol oxidase K m; n = 3
T8 construct: recombinant, pET-28-TEV-CATPO; contains heme b; Rz 0.4
T8 sequence (M4GGR5 20-717 T207I): T7 sequence (M4GGR5 20-717) with T188I
Experimental: as §1

Oc1cccc(O)c1O [Pyrogallol, pyrogallol]
V max (CATPO [1]): 18450 ± 451 mM/min
k cat/K m (CATPO [1]): 960 ± 65 s^−1 M^−1 (×10^2)
V max (CATPO E484A variant [2]): 50000 ± 156 mM/min
k cat/K m (CATPO E484A variant [2]): 6000 ± 50 s^−1 M^−1 (×10^2)
K m (CATPO E484A variant [2]; pH 7.0 (ABTS pH 5.0), 60°C): 36 ± 0.7 mM
V max (CATPO E484D variant [3]): 16800 ± 300 mM/min
k cat/K m (CATPO E484D variant [3]): 600 ± 50 s^−1 M^−1 (×10^2)
K m (CATPO E484D variant [3]; pH 7.0 (ABTS pH 5.0), 60°C): 40 ± 0.5 mM
V max (CATPO E484I variant): 20300 ± 330 mM/min
k cat/K m (CATPO E484I variant): 3060 ± 30 s^−1 M^−1 (×10^2)
K m (CATPO E484I variant; pH 7.0 (ABTS pH 5.0), 60°C): 40 ± 1.1 mM
V max (CATPO T188A variant [4]): 16200 ± 410 mM/min
k cat/K m (CATPO T188A variant [4]): 660 ± 88 s^−1 M^−1 (×10^2)
K m (CATPO T188A variant [4]; pH 7.0 (ABTS pH 5.0), 60°C): 40 ± 1.0 mM
V max (CATPO T188D variant): 15000 ± 150 mM/min
k cat/K m (CATPO T188D variant): 5710 ± 200 s^−1 M^−1 (×10^2)
K m (CATPO T188D variant; pH 7.0 (ABTS pH 5.0), 60°C): 41 ± 1.0 mM
V max (CATPO T188F variant [5]): 28100 ± 760 mM/min
k cat/K m (CATPO T188F variant [5]): 3930 ± 250 s^−1 M^−1 (×10^2)
K m (CATPO T188F variant [5]; pH 7.0 (ABTS pH 5.0), 60°C): 37 ± 0.5 mM
V max (CATPO T188I variant [6]): 27400 ± 310 mM/min
k cat/K m (CATPO T188I variant [6]): 3470 ± 256 s^−1 M^−1 (×10^2)
K m (CATPO T188I variant [6]; pH 7.0 (ABTS pH 5.0), 60°C): 38 ± 0.5 mM
Ki (CATPO [7]): 4.2 ± 0.8 mM
Ki (CATPO E484A variant [8]): 71 ± 4 mM
Ki (CATPO E484D variant [9]): 4.1 ± 0.7 mM
Ki (CATPO T188A variant [10]): 4.1 ± 0.8 mM
Ki (CATPO T188F variant [11]): 64 ± 6 mM
Ki (CATPO T188I variant [12]): 62 ± 2.5 mM
K m (CATPO [13]): 40 ± 1.8 mM
K m (T188I): 38 ± 0.5 mM
